Source: the NIST ThermoML archive (doi:10.1021/acs.jced.8b00387)

Assay: xn = mol fraction of the nth substance listed
Conditions: for viscosity / mass density / speed of sound: 102 kPa, Liquid; for viscosity: Concentric cylinders viscometry; for mass density: Vibrating tube method; for speed of sound: Frequency=3 MHz, Single path-length method; for surface tension liquid-gas: 295 K, Pendant drop shape

CC(CC(C)(C)C)CC(C)(C)CC(C)(C)C (stereo not given) [2,2,4,4,6,8,8-heptamethylnonane] + CCCCc1ccccc1
Conditions	mass density [kg/m3]	speed of sound [m/s]	viscosity [mPa·s]
253.15 K, x2 = 0.1007	815.9	–	11.06
253.15 K, x2 = 0.2007	820.7	–	8.94
253.15 K, x2 = 0.3	826.1	–	7.29
253.15 K, x2 = 0.3999	832.1	–	5.97
253.15 K, x2 = 0.4998	838.8	–	4.93
253.15 K, x2 = 0.5997	846.5	–	4.12
253.15 K, x2 = 0.7001	855.7	–	3.46
253.15 K, x2 = 0.7998	865.8	–	2.96
253.15 K, x2 = 0.8992	878.5	–	2.59
288.15 K, x2 = 0.1007	791.93	1308.2	–
288.15 K, x2 = 0.2007	796.54	1311.6	–
288.15 K, x2 = 0.3	801.59	1315.6	–
288.15 K, x2 = 0.3999	807.31	1320.4	–
288.15 K, x2 = 0.4998	813.73	1325.5	–
288.15 K, x2 = 0.5997	820.89	1331.9	–
288.15 K, x2 = 0.7001	829.45	1339.5	–
288.15 K, x2 = 0.7998	839.17	1348.9	–
288.15 K, x2 = 0.8992	850.51	1359.8	–
293.15 K, x2 = 0.1007	788.54	1289.3	3.22
293.15 K, x2 = 0.2007	793.11	1292.7	2.77
293.15 K, x2 = 0.3	798.11	1296.6	2.41
293.15 K, x2 = 0.3999	803.78	1301.1	2.09
293.15 K, x2 = 0.4998	810.17	1306.3	1.83
293.15 K, x2 = 0.5997	817.24	1312.5	1.6
293.15 K, x2 = 0.7001	825.74	1320.1	1.41
293.15 K, x2 = 0.7998	835.37	1329.1	1.29
293.15 K, x2 = 0.8992	846.62	1340	1.15
303.15 K, x2 = 0.1007	781.75	1251.9	2.58
303.15 K, x2 = 0.2007	786.24	1255.2	2.25
303.15 K, x2 = 0.3	791.16	1258.9	1.97
303.15 K, x2 = 0.3999	796.72	1263.3	1.73
303.15 K, x2 = 0.4998	803	1268.3	1.55
303.15 K, x2 = 0.5997	809.95	1274.4	1.37
303.15 K, x2 = 0.7001	818.29	1281.9	1.21
303.15 K, x2 = 0.7998	827.77	1290.3	1.1
303.15 K, x2 = 0.8992	838.82	1300.9	0.993
313.15 K, x2 = 0.1007	774.96	1215.2	2.11
313.15 K, x2 = 0.2007	779.36	1218.4	1.86
313.15 K, x2 = 0.3	784.19	1222	1.64
313.15 K, x2 = 0.3999	789.65	1226.2	1.46
313.15 K, x2 = 0.4998	795.81	1231.1	1.3
313.15 K, x2 = 0.5997	802.64	1237	1.16
313.15 K, x2 = 0.7001	810.83	1244.2	1.03
313.15 K, x2 = 0.7998	820.15	1252.3	0.957
313.15 K, x2 = 0.8992	831.01	1262.7	0.855
323.15 K, x2 = 0.1007	768.15	1179.3	1.76
323.15 K, x2 = 0.2007	772.47	1182.3	1.56
323.15 K, x2 = 0.3	777.21	1185.8	1.39
323.15 K, x2 = 0.3999	782.56	1189.8	1.27
323.15 K, x2 = 0.4998	788.61	1194.5	1.14
323.15 K, x2 = 0.5997	795.31	1200.2	1.03
323.15 K, x2 = 0.7001	803.34	1207.2	0.92
323.15 K, x2 = 0.7998	812.49	1215.1	0.831
323.15 K, x2 = 0.8992	823.15	1225.2	0.754
333.15 K, x2 = 0.1007	761.33	1144.1	1.49
333.15 K, x2 = 0.2007	765.57	1147	1.33
333.15 K, x2 = 0.3	770.2	1150.3	1.2
333.15 K, x2 = 0.3999	775.45	1154.1	1.1
333.15 K, x2 = 0.4998	781.38	1158.8	1
333.15 K, x2 = 0.5997	787.95	1164.2	0.9
333.15 K, x2 = 0.7001	795.82	1170.9	0.812
333.15 K, x2 = 0.7998	804.8	1178.9	0.736
333.15 K, x2 = 0.8992	815.26	1188.7	0.67

Conditions	surface tension liquid-gas [mN/m]
x2 = 0.1007	24.3
x2 = 0.2007	24.6
x2 = 0.3	24.8
x2 = 0.3999	25.1
x2 = 0.4998	25.5
x2 = 0.5997	26
x2 = 0.7001	26.2
x2 = 0.7998	26.7
x2 = 0.8992	27.3
